Experiment [1] has as its system U2OS stably expressing fluorescent DAG biosensor. Put plainly: DAG biosensor fluorescence redistribution (internalization) assay.
Experimental: Cellular distribution of DAG biosensor stimulated cells. […] DAG biosensor activity was determined measuring the generation of the vesicle using image analysis algorithms.
As with the previous examples, in order to assess whether the activation of the above mentioned polypeptide induces intracellular fluorescence redistribution in living cells, peptide turboGFP was cloned as the fluorescent peptide and the cellular localization of the biosensor was analysed upon diacylglycerol induced activation. In this sense, U2O2 cell line was stably transfected with the plasmid construction that contains the above mentioned biosensor's coding sequence. […] As with the previous examples, activity was calculated as an increment of granularity by treating these cells with increasing dosages of PMA.
Experiment [2] has as its target human Tachykinin receptor 1 (Neurokinin 1 receptor) (Homo sapiens, UniProt P25103). To be noted: 10 uM, 6 hours, U2OS expressing human Neurokinin receptor 1 and calcium biosensor.
Experimental: Secondly, in order to determine whether calcium induces a significant conformational change within a physiological dynamic range, the U2O2 biosensor stable cell line was stably transfected with the human Tachykinin receptor 1.
The double stable cell line was seeded at 20,000 cells per well on 96-mm optical plates, and cultured in 200 ul of DMEM F12 supplemented with 10% fetal bovine serum. For fluorescent biosensor redistribution, cells were stimulated with different concentrations of the agonist Substancia P during 6 hours. After treatment, the nucleus was stained with DAPI and biosensor fluorescence redistribution was detected by fluorescence using image analysis algorithms. […] The activity was calculated as an increment of the granularity of these cells. Cells were treated with 11 log dilution series (n=5).
Experiment [3] relates to HEK293 and U2O2 cells stably transfected with calcium biosensor. Briefly: Calcium biosensor cellular localization upon calcium induced activation. Format: cell-based. The following applies: 10 ng/ml of PMA and 1 uM of ionomycin applied together. The source says: After transfection, both cell lines presented a membrane distribution of the fluorescence.

Values after ≈ are worked out from the molar mass of the structure shown.

Sequence of human Tachykinin receptor 1 (Neurokinin 1 receptor) (P25103 whole entry): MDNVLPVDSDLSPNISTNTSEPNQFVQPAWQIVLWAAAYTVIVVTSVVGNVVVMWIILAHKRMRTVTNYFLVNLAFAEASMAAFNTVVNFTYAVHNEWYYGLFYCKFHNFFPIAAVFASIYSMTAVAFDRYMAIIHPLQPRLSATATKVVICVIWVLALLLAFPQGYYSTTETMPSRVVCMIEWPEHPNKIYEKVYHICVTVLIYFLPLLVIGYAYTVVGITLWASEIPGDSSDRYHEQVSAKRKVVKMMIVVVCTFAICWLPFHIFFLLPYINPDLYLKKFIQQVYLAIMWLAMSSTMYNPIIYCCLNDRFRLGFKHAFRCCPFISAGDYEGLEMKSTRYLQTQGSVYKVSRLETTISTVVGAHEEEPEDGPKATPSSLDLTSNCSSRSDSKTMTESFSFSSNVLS

The EC50 is the concentration at which the effect is half-maximal. Take `CC(C)NCC(O)c1ccc(O)c(O)c1` (centres unmarked) [Isoproterenol]: in experiment [1] (Homo sapiens, U2OS, 4 h, read-out: Ec50, biosensor redistribution (increment of granularity)), the half-maximal effective concentration (EC50) was 0.000289 ng/mL (≈ 0.00137 nM).

As to Substance P, the “Cellular distribution of fluorescent calcium biosensor after treatment” value in experiment [2] is reported as “internalized in vesicles in the citosol”.

Consider `C[C@H](CCC(=O)O)C[C@H](C)C[C@H](C)C(=O)/C=C(\O)[C@H](C)C[C@H](C)C/C=C/[C@@H](C)[C@@H](O)[C@@H](C)[C@@H](O)C[C@@H]1CC[C@@](C)([C@H]2CC[C@@](C)([C@@H](C)O)O2)O1` [ionomycin], for which the “Membrane distribution of calcium biosensor after raising intracellular calcium” value in experiment [3] was “substantial decrease in membrane distribution”.

With `CCCCCCCCCCCCCC(=O)O[C@@H]1[C@@H](C)[C@@]2(O)[C@@H](C=C(CO)C[C@]3(O)C(=O)C(C)=C[C@@H]23)[C@@H]2C(C)(C)[C@]12OC(C)=O` [PMA], the “Membrane distribution of calcium biosensor after raising intracellular calcium” value in experiment [3] is reported as “substantial decrease in membrane distribution”. The “Cellular distribution of fluorescent DAG biosensor after treatment” value in experiment [1] (25 ng/ml, 4 hours, U2OS expressing DAG biosensor) is given as “internalized in vesicles in the citosol”.
